Tests used:
Type in all cases: cell-based
[1] = biological target: T1, h[α6V32L, K61R/α3]β4L107V,V115I (Homo sapiens, UniProt P30926+P32297+Q15825, K94R/L133V/V141I/V65L); settings: ACh on h[α6V32L
T1 construct: formed by splicing the N-terminal extracellular domain of the α6 subunit with the α3 subunit; fusion partner: remainder of the human α3 subunit (CHRNA3); expressed in transfected cells; host or cells: Xenopus laevis oocytes injected with cRNA

h[α6M67T/α3]β4 = biological target: T2, h[α6M67T/α3]β4 (Homo sapiens, UniProt P30926+P32297+Q15825, M100T); settings: ACh on h[α6M67T/α3]β4
T2 construct: formed by splicing the N-terminal extracellular domain of the α6 subunit with the α3 subunit; fusion partner: remainder of the human α3 subunit (CHRNA3); expressed in transfected cells; host or cells: Xenopus laevis oocytes injected with cRNA

h[α6I176V/α3]β4 = biological target: T3, h[α6I176V/α3]β4 (Homo sapiens, UniProt P30926+P32297+Q15825, I209V); test: Electrophysiological assay, ACh concentration-response (Xenopus oocytes); settings: ACh on h[α6I176V/α3]β4
T3 construct: formed by splicing the N-terminal extracellular domain of the α6 subunit with the α3 subunit; fusion partner: remainder of the human α3 subunit (CHRNA3); expressed in transfected cells; host or cells: Xenopus laevis oocytes injected with cRNA

h[α6K81N/α3]β4 = biological target: T4, h[α6K81N/α3]β4 (Homo sapiens, UniProt P30926+P32297+Q15825, K114N); settings: ACh on h[α6K81N/α3]β4
T4 construct: formed by splicing the N-terminal extracellular domain of the α6 subunit with the α3 subunit; fusion partner: remainder of the human α3 subunit (CHRNA3); expressed in transfected cells; host or cells: Xenopus laevis oocytes injected with cRNA

h[α6K61R/α3]β4 = biological target: T5, h[α6K61R/α3]β4 (Homo sapiens, UniProt P30926+P32297+Q15825, K94R); test: Electrophysiological assay, ACh concentration-response (Xenopus oocytes); settings: ACh on h[α6K61R/α3]β4
T5 construct: formed by splicing the N-terminal extracellular domain of the α6 subunit with the α3 subunit; human nAChR α3 subunit (CHRNA3); expressed in transfected cells; host or cells: Xenopus laevis oocytes injected with cRNA (plasmids from the University of Utah)

h[α6R3Q/α3]β4 = biological target: T6, h[α6R3Q/α3]β4 (Homo sapiens, UniProt P30926+P32297+Q15825, R36Q); test: as above; settings: ACh on h[α6R3Q/α3]β4
T6 construct: formed by splicing the N-terminal extracellular domain of the α6 subunit with the α3 subunit; human nAChR α3 subunit (CHRNA3); expressed in transfected cells; host or cells: Xenopus laevis oocytes injected with cRNA (plasmids from the University of Utah)

h[α6M112V/α3]β4 = biological target: T7, h[α6M112V/α3]β4 (Homo sapiens, UniProt P30926+P32297+Q15825, M145V); settings: ACh on h[α6M112V/α3]β4
T7 construct: formed by splicing the N-terminal extracellular domain of the α6 subunit with the α3 subunit; fusion partner: remainder of the human α3 subunit (CHRNA3); expressed in transfected cells; host or cells: Xenopus laevis oocytes injected with cRNA

h[α6R63C/α3]β4 = biological target: T8, h[α6R63C/α3]β4 (Homo sapiens, UniProt P30926+P32297+Q15825, R96C); settings: ACh on h[α6R63C/α3]β4
T8 construct: formed by splicing the N-terminal extracellular domain of the α6 subunit with the α3 subunit; human nAChR α3 subunit (CHRNA3); expressed in transfected cells; host or cells: Xenopus laevis oocytes injected with cRNA (plasmids from the University of Utah)

h[α6V32L, K61R/α3]β4 = biological target: T9, h[α6V32L, K61R/α3]β4 (Homo sapiens, UniProt P30926+P32297+Q15825, K94R/V65L); settings: ACh on h[α6V32L
T9 construct: formed by splicing the N-terminal extracellular domain of the α6 subunit with the α3 subunit; fusion partner: remainder of the human α3 subunit (CHRNA3); expressed in transfected cells; host or cells: Xenopus laevis oocytes injected with cRNA

h[α6N58K/α3]β4 = biological target: T10, h[α6N58K/α3]β4 (Homo sapiens, UniProt P30926+P32297+Q15825, N91K); test: Electrophysiological assay, ACh concentration-response (Xenopus oocytes); settings: ACh on h[α6N58K/α3]β4
T10 construct: formed by splicing the N-terminal extracellular domain of the α6 subunit with the α3 subunit; human nAChR α3 subunit (CHRNA3); expressed in transfected cells; host or cells: Xenopus laevis oocytes injected with cRNA (plasmids from the University of Utah)

h[α6Q14R/α3]β4 = biological target: T11, h[α6Q14R/α3]β4 (Homo sapiens, UniProt P30926+P32297+Q15825, Q47R); settings: ACh on h[α6Q14R/α3]β4
T11 construct: formed by splicing the N-terminal extracellular domain of the α6 subunit with the α3 subunit; human nAChR α3 subunit (CHRNA3); expressed in transfected cells; host or cells: Xenopus laevis oocytes injected with cRNA (plasmids from the University of Utah)

h[α6S10A/α3]β4 = biological target: T12, h[α6S10A/α3]β4 (Homo sapiens, UniProt P30926+P32297+Q15825, S43A); settings: ACh on h[α6S10A/α3]β4
T12 construct: formed by splicing the N-terminal extracellular domain of the α6 subunit with the α3 subunit; human nAChR α3 subunit (CHRNA3); expressed in transfected cells; host or cells: Xenopus laevis oocytes injected with cRNA (plasmids from the University of Utah)

h[α6N110D/α3]β4 = biological target: T13, h[α6N110D/α3]β4 (Homo sapiens, UniProt P30926+P32297+Q15825, N143D); test: Electrophysiological assay, ACh concentration-response (Xenopus oocytes); settings: ACh on h[α6N110D/α3]β4
T13 construct: formed by splicing the N-terminal extracellular domain of the α6 subunit with the α3 subunit; fusion partner: remainder of the human α3 subunit (CHRNA3); expressed in transfected cells; host or cells: Xenopus laevis oocytes injected with cRNA

h[α6V32L/α3]β4 = biological target: T14, h[α6V32L/α3]β4 (Homo sapiens, UniProt P30926+P32297+Q15825, V65L); settings: ACh on h[α6V32L/α3]β4
T14 construct: formed by splicing the N-terminal extracellular domain of the α6 subunit with the α3 subunit; human nAChR α3 subunit (CHRNA3); expressed in transfected cells; host or cells: Xenopus laevis oocytes injected with cRNA (plasmids from the University of Utah)

h[α6K7T/α3]β4 = biological target: T15, h[α6K7T/α3]β4 (Homo sapiens, UniProt P30926+P32297+Q15825, K40T); test: Electrophysiological assay, ACh concentration-response (Xenopus oocytes); settings: ACh on h[α6K7T/α3]β4
T15 construct: formed by splicing the N-terminal extracellular domain of the α6 subunit with the α3 subunit; human nAChR α3 subunit (CHRNA3); expressed in transfected cells; host or cells: Xenopus laevis oocytes injected with cRNA (plasmids from the University of Utah)

T6 sequence (Q15825+P32297 fused with the stated changes): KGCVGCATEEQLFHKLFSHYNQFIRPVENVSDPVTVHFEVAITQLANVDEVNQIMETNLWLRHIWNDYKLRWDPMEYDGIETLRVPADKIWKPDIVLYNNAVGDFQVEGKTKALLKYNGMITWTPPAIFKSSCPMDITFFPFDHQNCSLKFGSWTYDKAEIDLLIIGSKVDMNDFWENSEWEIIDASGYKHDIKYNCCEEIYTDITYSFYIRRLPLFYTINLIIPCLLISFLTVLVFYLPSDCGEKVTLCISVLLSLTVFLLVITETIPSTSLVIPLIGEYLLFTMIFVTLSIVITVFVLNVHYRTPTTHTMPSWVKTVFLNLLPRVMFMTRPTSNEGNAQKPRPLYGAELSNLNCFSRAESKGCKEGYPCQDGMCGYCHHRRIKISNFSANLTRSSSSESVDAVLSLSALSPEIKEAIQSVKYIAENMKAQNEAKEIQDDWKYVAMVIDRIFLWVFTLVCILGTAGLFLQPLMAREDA
T6 sequence (P30926 22-498): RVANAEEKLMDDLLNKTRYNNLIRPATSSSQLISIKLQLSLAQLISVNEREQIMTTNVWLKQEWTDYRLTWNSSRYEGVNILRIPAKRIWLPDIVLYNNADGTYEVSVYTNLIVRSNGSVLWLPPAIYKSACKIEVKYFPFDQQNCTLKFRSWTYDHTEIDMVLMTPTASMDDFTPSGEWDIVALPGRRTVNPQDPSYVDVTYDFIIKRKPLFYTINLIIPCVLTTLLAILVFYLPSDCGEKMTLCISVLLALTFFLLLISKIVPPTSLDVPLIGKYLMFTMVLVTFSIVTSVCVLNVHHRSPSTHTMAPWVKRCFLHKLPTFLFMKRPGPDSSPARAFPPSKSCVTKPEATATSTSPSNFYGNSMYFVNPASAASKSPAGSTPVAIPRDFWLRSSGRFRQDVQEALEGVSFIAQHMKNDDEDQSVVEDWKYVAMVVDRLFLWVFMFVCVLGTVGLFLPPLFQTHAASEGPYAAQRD
T14 sequence (Q15825+P32297 fused with the stated changes): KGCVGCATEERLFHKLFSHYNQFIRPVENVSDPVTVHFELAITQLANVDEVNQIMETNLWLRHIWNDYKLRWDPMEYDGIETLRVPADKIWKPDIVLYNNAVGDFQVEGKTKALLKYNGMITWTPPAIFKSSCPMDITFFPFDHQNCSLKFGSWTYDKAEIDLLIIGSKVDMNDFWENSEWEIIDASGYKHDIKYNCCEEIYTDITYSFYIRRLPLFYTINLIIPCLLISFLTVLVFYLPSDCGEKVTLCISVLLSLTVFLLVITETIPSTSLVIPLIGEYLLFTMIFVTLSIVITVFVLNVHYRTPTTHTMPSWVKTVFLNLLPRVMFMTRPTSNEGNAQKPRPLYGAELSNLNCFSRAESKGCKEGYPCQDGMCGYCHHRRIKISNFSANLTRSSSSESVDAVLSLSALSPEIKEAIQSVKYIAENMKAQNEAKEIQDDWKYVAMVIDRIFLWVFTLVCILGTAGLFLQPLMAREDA
T14 sequence (P30926 22-498): as the sequence (P30926 22-498) above
T10 sequence (Q15825+P32297 fused with the stated changes): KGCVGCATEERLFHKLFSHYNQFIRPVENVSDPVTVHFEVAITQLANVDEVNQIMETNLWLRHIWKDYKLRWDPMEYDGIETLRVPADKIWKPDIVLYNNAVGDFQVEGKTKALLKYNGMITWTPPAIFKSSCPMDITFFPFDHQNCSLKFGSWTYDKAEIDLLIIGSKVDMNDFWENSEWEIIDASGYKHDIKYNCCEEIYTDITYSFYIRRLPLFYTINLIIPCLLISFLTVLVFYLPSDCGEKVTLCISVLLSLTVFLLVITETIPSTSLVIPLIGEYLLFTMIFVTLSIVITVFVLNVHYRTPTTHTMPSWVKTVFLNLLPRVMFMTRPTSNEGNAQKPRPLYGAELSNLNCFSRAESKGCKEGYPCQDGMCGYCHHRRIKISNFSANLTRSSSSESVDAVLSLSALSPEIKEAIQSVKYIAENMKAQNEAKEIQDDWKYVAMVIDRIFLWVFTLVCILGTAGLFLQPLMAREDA
T10 sequence (P30926 22-498): as the sequence (P30926 22-498) above
T5 sequence (Q15825+P32297 fused with the stated changes): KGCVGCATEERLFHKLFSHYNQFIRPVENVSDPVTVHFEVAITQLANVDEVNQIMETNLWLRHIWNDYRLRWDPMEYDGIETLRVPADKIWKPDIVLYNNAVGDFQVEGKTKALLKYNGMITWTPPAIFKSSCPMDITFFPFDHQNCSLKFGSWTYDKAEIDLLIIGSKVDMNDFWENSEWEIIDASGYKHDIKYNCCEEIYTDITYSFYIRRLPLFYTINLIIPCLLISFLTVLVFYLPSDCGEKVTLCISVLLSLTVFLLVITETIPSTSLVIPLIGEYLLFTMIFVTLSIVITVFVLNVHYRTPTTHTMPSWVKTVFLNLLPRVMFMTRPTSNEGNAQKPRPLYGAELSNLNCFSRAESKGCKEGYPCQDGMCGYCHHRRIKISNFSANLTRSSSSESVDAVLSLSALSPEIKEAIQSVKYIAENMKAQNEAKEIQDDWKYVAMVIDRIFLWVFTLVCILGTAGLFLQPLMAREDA
T5 sequence (P30926 22-498): as the sequence (P30926 22-498) above
T13 sequence (Q15825+P32297 fused with the stated changes): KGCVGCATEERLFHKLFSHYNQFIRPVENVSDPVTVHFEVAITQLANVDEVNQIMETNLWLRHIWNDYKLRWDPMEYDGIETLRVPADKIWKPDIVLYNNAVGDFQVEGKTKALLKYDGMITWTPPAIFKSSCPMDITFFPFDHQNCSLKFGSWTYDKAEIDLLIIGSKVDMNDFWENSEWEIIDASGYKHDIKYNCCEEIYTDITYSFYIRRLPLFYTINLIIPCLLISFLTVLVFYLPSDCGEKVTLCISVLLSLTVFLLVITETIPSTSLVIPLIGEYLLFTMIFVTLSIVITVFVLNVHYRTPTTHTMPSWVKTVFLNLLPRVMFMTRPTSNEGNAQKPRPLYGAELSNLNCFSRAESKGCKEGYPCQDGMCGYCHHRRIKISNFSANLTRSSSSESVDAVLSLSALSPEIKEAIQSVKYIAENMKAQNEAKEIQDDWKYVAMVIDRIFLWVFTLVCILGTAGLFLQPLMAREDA
T13 sequence (P30926 22-498): as the sequence (P30926 22-498) above

## CC(=O)OCC[N+](C)(C)C [ACh, acetylcholine chloride]
[1]
  Hill Slope: 1.2 (1.0–1.5)
h[α6M67T/α3]β4
  Hill Slope: 1.4 (0.9–2.2)
h[α6I176V/α3]β4
  Hill Slope: 1.7 (1.4–2.1)
h[α6K81N/α3]β4
  Hill Slope: 1.4 (1.3–1.7)
h[α6K61R/α3]β4
  Hill Slope: 1.4 (1.2–1.7)
h[α6R3Q/α3]β4
  Hill Slope: 1.4 (1.2–1.8)
h[α6M112V/α3]β4
  Hill Slope: 1.4 (1.1–1.8)
h[α6R63C/α3]β4
  Hill Slope: 1.5 (1.2–1.8)
h[α6V32L, K61R/α3]β4
  Hill Slope: 1.2 (1.1–1.3)
h[α6N58K/α3]β4
  Hill Slope: 1.4 (1.2–1.7)
h[α6Q14R/α3]β4
  Hill Slope: 1.4 (1.2–1.6)
h[α6S10A/α3]β4
  Hill Slope: 1.6 (1.2–2.3)
h[α6N110D/α3]β4
  Hill Slope: 1.2 (0.9–1.6)
h[α6V32L/α3]β4
  Hill Slope: 1.5 (1.3–1.9)
h[α6K7T/α3]β4
  Hill Slope: 1.5 (1.1–1.9)

From publication PMC10218596 (International Journal of Molecular Sciences, 2023)
